Values quoted from earlier work as cited in patent US20020132013A1, “Liquid cautery catheter” (priority 2001, published 2002).

Key:
[1] = tested on: uterocomual tubal junction
[2] = tested on: hemorrhagic radiation induced proctitis; settings: topical application

SMILES | complications reported ([1]; 35 healthy, parous women) | bilateral tubal occlusion, share of study participants ([1]; 35 healthy, parous women, hysterosalpingography 4 months after the procedure) | pregnancies reported in participants who demonstrated tubal occlusion ([1]; participants with tubal occlusion) | efficacy in control of bleeding [2]
C=C(C#N)C(=O)OC [Methyl 2-cyanoacrylate] | No complications were reported | 88.2% | no pregnancies reported | 
C=O [formalin] |  |  |  | demonstrated the efficacy
